Experimental data reported in publication PMC7411736, “Effects of Sesamin, the Major Furofuran Lignan of Sesame Oil, on the Amplitude and Gating of Voltage-Gated Na^+ and K^+ Currents” (Molecules, 2020).
Where two headings read alike, the source gives them in different places.

Assays:
[1] = system: voltage-gated Na+ currents (INa) in pituitary GH3 cells; test: Whole-cell patch-clamp of voltage-gated Na+ current evoked by depolarization from −80 to −10 mV; format: cell-based, rat; settings: for IC50: GH3 cells, depolarization −80 to −10 mV
Method: In an initial step of the experiments, we examined the effects of SSM on the amplitude and gating of INa in response to rapid membrane depolarization. Cells were bathed in Ca^2+-free Tyrode’s solution containing 10 mM tetraethylammonium chloride (TEA) and the recording pipette was backfilled with a Cs^+-containing solution. […] For example, when rapid membrane depolarization from −80 to −10 mV with a duration of 40 msec was delivered (indicated in the inset of Figure 1A) to evoke INa, the addition of 3 μM SSM caused a decrease in the peak or sustained amplitude of INa to 139 ± 11 pA (n = 11, P < 0.05) or 12 ± 3 pA (n = 11, P < 0.05), respectively, from the control values of 248 ± 18 or 21 ± 2 pA (n = 11). After the removal of SSM, the peak and sustained amplitude returned to 232 ± 16 or 19 ± 2 pA (n = 7, P < 0.05).
The bath solution (i.e., a HEPES-buffered normal Tyrode’s solution) utilized in the present study was composed of 136 mM NaCl, 5.4 mM KCl, 1.8 mM CaCl2, 0.53 mM MgCl2, 5.5 mM glucose, and 5.5 mM HEPES titrated with NaOH to pH 7.4. To measure macroscopic IK(DR) and Ih, we filled patch pipettes by using a solution containing 130 mM K-aspartate, 20 mM KCl, 1 mM KH2PO4, 1 mM MgCl2, 3 mM Na2ATP, 0.1 mM Na2GTP, 0.1 mM EGTA, and 5 mM HEPES adjusted with KOH to pH 7.2. To record INa and INa(R), we substituted K^+ ions in the pipette solution inside the electrode for equmolar Cs^+ ions and the pH value in the solution was adjusted to 7.2 with CsOH. To measure IK(erg) and IK(M), cells were bathed in a high-K^+ solution containing 145 mM KCl, 0.53 mM MgCl2, and 5 mM HEPES-KOH buffer, pH 7.4. All solutions were prepared using deionized water from a Millipore Milli-Q purification system (ρ = 18 MΩ·cm) (Merck, Ltd., Taipei, Taiwan). The pipette solution and culture medium were filtered on the day of use with a sterile Acrodisc® syringe filter with a 0.2-μm Supor® membrane (Bio-Check; New Taipei City, Taiwan).
The pituitary adenomatous cell line, GH3, was acquired from the Bioresource Collection and Research Center ((BCRC-60015, https://catalog.bcrc.firdi.org.tw/BcrcContent?bid=60015); Hsinchu, Taiwan). Cells were maintained in Ham’s F-12 medium supplemented with 2.5% fetal bovine serum (v/v), 15% horse serum (v/v), and 2 mM L-glutamine in a humidified environment of 5% CO2/95% air. When well differentiated, GH3 cells were transferred to a serum- and Ca^2+-free medium. Electrical recordings were performed 5 or 6 days after cells were cultured with 60–80% confluence.
On the day of each experiment, cells were dispersed with a 1% trypsin/EDTA solution and a few drops of cell suspension were rapidly placed in a custom-built recording chamber mounted on the stage of an inverted DM-IL microscope (Leica; Major Instruments, Kaohsiung, Taiwan). They were immersed at room temperature (20–25 °C) in normal Tyrode’s solution, the composition of which is elaborated above. We measured ion currents in the whole-cell model of a standard patch-clamp technique with dynamic adaptive suctioning (i.e., decremental change of suction pressure in response to a progressive increase in the electrode resistance), with the aid of an RK-400 (Bio-Logic, Claix, France) or an Axopatch-200B (Molecular Devices, Sunnyvale, CA) patch amplifier. The microelectrodes used were prepared from Kimax-51 borosilicate capillaries with a 1.5-mm outer diameter (#34500; Kimble; Dogger, New Taipei City, Taiwan) by using a PP-830 vertical puller (Narishige, Taiwan Instrument, Taipei, Taiwan). The recording electrodes had their tip resistances, which ranged between 3 and 5 MΩ, as they were filled up with the different internal solutions elaborated above. During the measurements, the recorded area on the vibration-free table was shielded by using a Faraday cage (Scitech, Seoul, South Korea). […]

[2] = system: delayed rectifier K+ currents (IK(DR)) in GH3 cells; test: Whole-cell patch-clamp of delayed rectifier K+ current (1-sec step depolarization); format: cell-based, rat
Method: We next examined whether the presence of SSM is able to modify IK(DR) present in GH3 cells. To achieve this goal, we bathed cells in Ca^2+-free Tyrode’s solution which contained 1 μM TTX, and then filled up the recording electrode by using K^+-containing solution. When cells were exposed to SSM at a concentration of 3 μM, the amplitude of IK(DR) in response to a 1-sec step depolarization was unchanged. It is noted, however, that the IK(DR) amplitudes responding to different levels of depolarizing command steps were decreased by the addition of 10 μM SSM, though the activation time course of IK(DR) evoked by membrane depolarization remained unchanged.
The bath solution (i.e., a HEPES-buffered normal Tyrode’s solution) utilized in the present study was composed of 136 mM NaCl, 5.4 mM KCl, 1.8 mM CaCl2, 0.53 mM MgCl2, 5.5 mM glucose, and 5.5 mM HEPES titrated with NaOH to pH 7.4. To measure macroscopic IK(DR) and Ih, we filled patch pipettes by using a solution containing 130 mM K-aspartate, 20 mM KCl, 1 mM KH2PO4, 1 mM MgCl2, 3 mM Na2ATP, 0.1 mM Na2GTP, 0.1 mM EGTA, and 5 mM HEPES adjusted with KOH to pH 7.2. To record INa and INa(R), we substituted K^+ ions in the pipette solution inside the electrode for equmolar Cs^+ ions and the pH value in the solution was adjusted to 7.2 with CsOH. […]
On the day of each experiment, cells were dispersed with a 1% trypsin/EDTA solution and a few drops of cell suspension were rapidly placed in a custom-built recording chamber mounted on the stage of an inverted DM-IL microscope (Leica; Major Instruments, Kaohsiung, Taiwan). […] We measured ion currents in the whole-cell model of a standard patch-clamp technique with dynamic adaptive suctioning (i.e., decremental change of suction pressure in response to a progressive increase in the electrode resistance), with the aid of an RK-400 (Bio-Logic, Claix, France) or an Axopatch-200B (Molecular Devices, Sunnyvale, CA) patch amplifier. […] During the measurements, the recorded area on the vibration-free table was shielded by using a Faraday cage (Scitech, Seoul, South Korea). […]

In the case of `c1cc2c(cc1[C@H]1OC[C@H]3[C@@H]1CO[C@@H]3c1ccc3c(c1)OCO3)OCO2` [SSM, [1S-(1α,3aα,4α,6aα)] -5,5’- (tetrahydro-1H,3H-furo [3–4-c]furan-1,4-diyl)bis-1,3-benzodioxole], the “Effect on peak amplitude of INa” value ([1]; 3 μM, −80 to −10 mV (Figure 2)) is reported as “produced inhibitory effects”, the “Sustained amplitude of INa” value ([1]; 3 μM, −80 to −10 mV, 40 msec, control 21 ± 2 pA, n = 11) is reported as 12 ± 3 pA and the “Peak amplitude of INa” value ([1]; 3 μM, −80 to −10 mV, 40 msec, control 248 ± 18 pA, n = 11) is reported as 139 ± 11 pA. The “Effect on peak component of INa” value ([1]; 0.1 to 0.3 μM) was “little or no effect”, the “Effect on sustained component of INa” value ([1]; 0.1 to 0.3 μM) was “effectively blocked” and the IC50 ([1]; amplitude at beginning of pulse, read-out: IC50 for decrease of peak INa) was 7200 nM. For the same compound, the IC50 ([1]; amplitude at end of pulse, read-out: IC50 for decrease of sustained INa) was 600 nM, the Kd ([1]; first-order reaction scheme, open-state block, read-out: Dissociation constant (KD = k−1/k+1*) of INa block) was 930 nM and the “Unblocking (backward) rate constant k−1 of INa block” value ([1]; from intercept of 1/τinact(S) versus [SSM]) was 0.0415 msec^−1. The “Blocking (forward) rate constant k+1* of INa block” value ([1]; from slope of 1/τinact(S) versus [SSM]) was 0.0449 msec^−1μM^−1, the “Peak amplitude of INa after removal of compound” value ([1]; washout after 3 μM, n = 7) was 232 ± 16 pA and the “Sustained amplitude of INa after removal of compound” value ([1]; washout after 3 μM, n = 7) was 19 ± 2 pA. The “Effect on amplitude of IK(DR)” value ([2]; 3 μM, 1-sec step depolarization) was “unchanged”, the “IK(DR) amplitude” value ([2]; 10 μM, at +40 mV, control 598 ± 34 pA, n = 8) was 454 ± 29 pA and the “Decrease of IK(DR) amplitude” value ([2]; 10 μM, at +40 mV, n = 8) was 23 ± 4%.
